From publication PMC6225228, “Design, Synthesis and Evaluation of N-pyrazinylbenzamides as Potential Antimycobacterial Agents” (Molecules : A Journal of Synthetic Chemistry and Natural …, 2018)
Converted amounts (≈) assume the structure as drawn. Like-named read-outs stand apart in the source and are kept apart here.

Columns and labels:
[1] = tested on: M. kansasii CNCTC My 235/80 (ATCC 12478); assay: Antimycobacterial microdilution MABA, M. kansasii; format: cell-based, Mycobacterium kansasii; conditions: Mycobacterium kansasii, ATCC12478, pH 6.6, read-out: M. kans. ATCC 12478 MIC, Middlebrook 7H9 with OADC, pH 6.6, MABA
[2] = tested on: Staphylococcus epidermidis H 6966/08; assay: Antibacterial microdilution broth, SE; format: cell-based; conditions: Staphylococcus epidermidis, read-out: MIC SE
[3] = tested on: Lichtheimia corymbifera 272; assay: Antifungal microdilution broth, LC; format: cell-based; conditions: read-out: MIC LC
[4] = tested on: Candida glabrata 20/I; assay: Antifungal microdilution broth, CG; format: cell-based; conditions: Nakaseomyces glabratus, 20/I, read-out: MIC CG
[5] = tested on: Mycobacterium smegmatis CCM 4622 (ATCC 607); assay: Antimycobacterial microdilution, M. smegmatis; format: cell-based; conditions: Mycolicibacterium smegmatis, read-out: M. smeg. ATCC 607 MIC
[6] = tested on: Aspergillus fumigatus 231; assay: Antifungal microdilution broth, AF; format: cell-based; conditions: read-out: MIC AF
[7] = tested on: Staphylococcus aureus H 5996/08 methicillin resistant; assay: microbe, parasite or virus in culture; format: cell-based; conditions: Staphylococcus aureus, MRSA, read-out: MIC MRSA
[8] = tested on: Pseudomonas aeruginosa CCM 1961; assay: Antibacterial microdilution broth, PA; format: cell-based; conditions: Pseudomonas aeruginosa, read-out: MIC PA
[9] = tested on: Enterococcus sp. J 14365/08; assay: Antibacterial microdilution broth, EF; format: cell-based; conditions: Enterococcus, read-out: MIC EF
[10] = tested on: Trichosporon asahii 1188; assay: Antifungal microdilution broth, TA; format: cell-based; conditions: read-out: MIC TA
[11] = tested on: Trichophyton interdigitale 445; assay: Antifungal microdilution broth, TI; format: cell-based; conditions: read-out: MIC TI
[12] = tested on: M. avium ssp. avium CNCTC My 80/72 (ATCC 15769); assay: Antimycobacterial microdilution MABA, M. avium; format: cell-based, Mycobacterium avium; conditions: for M. avium ATCC 15769 MIC: Middlebrook 7H9 with OADC, pH 6.6, MABA; for MIC: Mycobacterium avium, ATCC15769, pH 6.6, read-out: M. avium ATCC 15769 MIC
[13] = tested on: Mycobacterium tuberculosis H37Rv CNCTC My 331/88 (ATCC 27294); assay: Antimycobacterial microdilution MABA, M. tuberculosis; format: cell-based; conditions: for MIC: Mycobacterium tuberculosis, read-out: Mtb H37Rv ATCC 27294 MIC, Middlebrook 7H9 with OADC growth supplement, pH = 6.6, MABA; for Mtb H37Rv ATCC 27294 MIC: Middlebrook 7H9 with OADC growth supplement, pH = 6.6, MABA
[14] = tested on: Escherichia coli CCM 4517; assay: Antibacterial microdilution broth, EC; format: cell-based; conditions: Escherichia coli, read-out: MIC EC
[15] = tested on: Candida albicans ATCC 44859; assay: Antifungal microdilution broth, CA; format: cell-based; conditions: Candida albicans, read-out: MIC CA
[16] = tested on: Candida tropicalis 156; assay: Antifungal microdilution broth, CT; format: cell-based; conditions: read-out: MIC CT
[17] = tested on: Candida krusei E28; assay: Antifungal microdilution broth, CK; format: cell-based; conditions: Pichia kudriavzevii, read-out: MIC CK
[18] = tested on: Staphylococcus aureus CCM 4516/08; assay: Antibacterial microdilution broth, SA; format: cell-based; conditions: Staphylococcus aureus
[19] = Lichtheimia corymbifera, 272, 24 h
[20] = Lichtheimia corymbifera, 272, 48 h
[21] = Aspergillus fumigatus, 231, 24 h
[22] = Aspergillus fumigatus, 231, 48 h
[23] = Trichosporon asahii, 1188, 24 h
[24] = Trichosporon asahii, 1188, 48 h
[25] = Trichophyton interdigitale, 445, 72 h
[26] = Trichophyton interdigitale, 445, 120 h
[27] = CCM4516, 24 h, read-out: MIC SA, 24 h
[28] = CCM4516, 48 h, read-out: MIC SA, 48 h
[29] = CCM4516, read-out: MIC against S. aureus, time not stated

Row | Compound | MIC [1] [µg/mL] | MIC ([2]; H6966/08, 24 h) [µM] | MIC ([2]; H6966/08, 48 h) [µM] | MIC [3, 19] [µM] | MIC [3, 20] [µM] | MIC ([4]; 24 h) [µM] | MIC ([4]; 48 h) [µM] | MIC [5] [µg/mL] | MIC [6, 21] [µM] | MIC [6, 22] [µM] | MIC ([7]; 24 h) [µM] | MIC ([7]; 48 h) [µM] | MIC ([8]; CCM1961, 72 h) [µM] | MIC ([8]; CCM1961, 120 h) [µM] | MIC ([9]; SP.J14365/08, 24 h) [µM] | MIC ([9]; SP.J14365/08, 48 h) [µM] | MIC [10, 23] [µM] | MIC [10, 24] [µM] | MIC [11, 25] [µM] | MIC [11, 26] [µM] | also measured
1 | O=C(Nc1cnccn1)c1cccc(Cl)c1 [Compound 1k] | 50 (≈ 214 µM) | > 125 | > 125 | > 125 | > 125 | > 125 | > 125 | ≥ 500 | > 125 | > 125 | > 125 | > 125 | > 125 | > 125 | > 125 | > 125 | > 125 | > 125 | > 125 | > 125 | M. avium ATCC 15769 MIC [12]: >100 µg/mL; MIC [12]: > 100 µg/mL; MIC [13]: 50 µg/mL (≈ 214 µM); melting point: 147.2 to 149.4 °C; MIC ([14]; CCM4517, 24 h): > 125 µM; MIC ([14]; CCM4517, 48 h): > 125 µM; MIC ([15]; ATCC44859, 24 h): > 125 µM; MIC ([15]; ATCC44859, 48 h): > 125 µM; MIC ([16]; Candida tropicalis, 156, 24 h): > 125 µM; MIC ([16]; Candida tropicalis, 156, 48 h): > 125 µM; MIC ([17]; E28, 24 h): > 125 µM; MIC ([17]; E28, 48 h): > 125 µM; MIC [18, 27]: > 125 µM; MIC [18, 28]: > 125 µM
2 | COc1ccc(C(=O)Nc2cnc(Cl)cn2)cc1 [Compound 2g] | > 100 | > 125 | > 125 | > 125 | > 125 | > 125 | > 125 | ≥ 500 | > 125 | > 125 | > 125 | > 125 | > 125 | > 125 | > 125 | > 125 | > 125 | > 125 | > 125 | > 125 | MIC [12]: > 100 µg/mL; MIC [13]: > 100 µg/mL; melting point: 177.8 to 179 °C; MIC ([14]; CCM4517, 24 h): > 125 µM; MIC ([14]; CCM4517, 48 h): > 125 µM; MIC ([15]; ATCC44859, 24 h): > 125 µM; MIC ([15]; ATCC44859, 48 h): > 125 µM; MIC ([16]; Candida tropicalis, 156, 24 h): > 125 µM; MIC ([16]; Candida tropicalis, 156, 48 h): > 125 µM; MIC ([17]; E28, 24 h): > 125 µM; MIC ([17]; E28, 48 h): > 125 µM; MIC [18, 27]: > 125 µM; MIC [18, 28]: > 125 µM; MIC [18, 29]: > 125 µM
3 | COc1ccccc1C(=O)Nc1cnccn1 [Compound 1e] | 100 (≈ 436 µM) | > 500 | > 500 | > 500 | > 500 | > 500 | > 500 | 125 (≈ 545 µM) | > 500 | > 500 | > 500 | > 500 | > 500 | > 500 | > 500 | > 500 | > 500 | > 500 | > 500 | > 500 | M. avium ATCC 15769 MIC [12]: >100 µg/mL; MIC [12]: > 100 µg/mL; Mtb H37Rv ATCC 27294 MIC [13]: >100 µg/mL; MIC [13]: > 100 µg/mL; melting point: 100.3 to 102.4 °C; MIC ([14]; CCM4517, 24 h): > 500 µM; MIC ([14]; CCM4517, 48 h): > 500 µM; MIC ([15]; ATCC44859, 24 h): > 500 µM; MIC ([15]; ATCC44859, 48 h): > 500 µM; MIC ([16]; Candida tropicalis, 156, 24 h): > 500 µM; MIC ([16]; Candida tropicalis, 156, 48 h): > 500 µM; MIC ([17]; E28, 24 h): > 500 µM; MIC ([17]; E28, 48 h): > 500 µM; MIC [18, 27]: > 500 µM; MIC [18, 28]: > 500 µM
4 | Cc1ccc(C(=O)Nc2cnccn2)cc1 [Compound 1h] | > 100 | 500 (≈ 107 µg/mL) | 500 (≈ 107 µg/mL) | > 500 | > 500 | > 500 | > 500 | ≥ 500 | > 500 | > 500 | > 500 | > 500 | 500 (≈ 107 µg/mL) | 500 (≈ 107 µg/mL) | > 500 | > 500 | > 500 | > 500 | > 500 | > 500 | MIC [12]: > 100 µg/mL; Mtb H37Rv ATCC 27294 MIC [13]: >100 µg/mL; MIC [13]: > 100 µg/mL; melting point: 163.3 to 166 °C; MIC ([14]; CCM4517, 24 h): > 500 µM; MIC ([14]; CCM4517, 48 h): > 500 µM; MIC ([15]; ATCC44859, 24 h): 500 µM (≈ 107 µg/mL); MIC ([15]; ATCC44859, 48 h): 500 µM (≈ 107 µg/mL); MIC ([16]; Candida tropicalis, 156, 24 h): > 500 µM; MIC ([16]; Candida tropicalis, 156, 48 h): > 500 µM; MIC ([17]; E28, 24 h): > 500 µM; MIC ([17]; E28, 48 h): > 500 µM; MIC [18, 27]: > 500 µM; MIC [18, 28]: > 500 µM
5 | O=C(Nc1cnc(Cl)cn1)c1cccc(Cl)c1 [Compound 2k] | > 100 | > 125 | > 125 | > 125 | > 125 | > 125 | > 125 | ≥ 500 | > 125 | > 125 | > 125 | > 125 | > 125 | > 125 | > 125 | > 125 | > 125 | > 125 | > 125 | > 125 | MIC [12]: > 100 µg/mL; Mtb H37Rv ATCC 27294 MIC [13]: >100 µg/mL; MIC [13]: > 100 µg/mL; melting point: 150.7 to 151.9 °C; MIC ([14]; CCM4517, 24 h): > 125 µM; MIC ([14]; CCM4517, 48 h): > 125 µM; MIC ([15]; ATCC44859, 24 h): > 125 µM; MIC ([15]; ATCC44859, 48 h): > 125 µM; MIC ([16]; Candida tropicalis, 156, 24 h): > 125 µM; MIC ([16]; Candida tropicalis, 156, 48 h): > 125 µM; MIC ([17]; E28, 24 h): > 125 µM; MIC ([17]; E28, 48 h): > 125 µM; MIC [18, 27]: > 125 µM; MIC [18, 28]: > 125 µM; MIC [18, 29]: > 125 µM
